The text below walks through data of patent US20140155445A1, “Compounds and Methods for Treating Cancer and Diseases of the Central Nervous System” (Osta Biotechnologies Inc., priority 2007, published 2014).

SMILES strings stand for the structures. Structures can show the parent of a compound that is named as a salt. Where two headings read alike, the source gives them in different places.

The target of one test is T1, HO-1 (rat spleen) (Rattus norvegicus, UniProt P06762).
T1 construct: Spleen microsomes were used as a source of HO-1; from tissue; host or cells: spleen microsomal fraction of adult male Sprague-Dawley rats
T1 sequence (P06762 1-289): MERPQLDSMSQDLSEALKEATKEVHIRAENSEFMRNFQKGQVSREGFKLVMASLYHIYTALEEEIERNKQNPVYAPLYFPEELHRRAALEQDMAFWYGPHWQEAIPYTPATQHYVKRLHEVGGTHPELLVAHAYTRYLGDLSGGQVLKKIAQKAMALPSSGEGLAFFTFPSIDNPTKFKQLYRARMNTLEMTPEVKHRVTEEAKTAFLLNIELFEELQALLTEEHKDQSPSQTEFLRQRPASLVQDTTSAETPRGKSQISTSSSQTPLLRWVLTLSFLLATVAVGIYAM
Description: HO enzymatic activity in rat spleen microsomal fraction (CO formed from methemalbumin, gas chromatography). In kind it is biochemical. The procedure:
(§1) Incubations for HO activity analysis were done under conditions for which the rate of CO formation (pmol CO×min^−1×mg protein^−1) was linear with respect to time and microsomal protein concentration. Briefly, reaction mixtures (150 μL) consisting of 100 mM phosphate buffer (pH 7.4), 50 μM methemalbumin, and 1 mg/mL protein were pre-incubated with the inhibitors at final concentrations ranging from 0.1-100 μM for 10 minutes at 37° C. Reactions were initiated by adding NADPH at a final concentration of 1 mM and incubations were performed for an additional 15 minutes at 37° C.
(§2) Incubations for HO activity analysis were done under conditions for which the rate of CO formation (pmol CO/mg protein/minute) was linear with respect to time and microsomal protein concentration. Briefly, reaction mixtures (150 μL) consisting of 100 mM phosphate buffer (pH 7.4), 50 μM methemalbumin and 1 mg/mL protein were pre-incubated with the vehicle (ethanol or water in which the inhibitors were dissolved), or inhibitors at final concentrations ranging from 0.1-1000 μM for 10 minutes at 37° C. Reactions were initiated by adding β-NADPH at a final concentration of 1 mM and incubations were carried out for an additional 15 minutes at 37° C. Reactions were stopped by instantly freezing the reaction mixture on pulverized dry ice and CO formation was measured by gas chromatography using a TA 3000R Process Gas Analyzer (Trace Analytical/Ametek, Newark, Del., USA).
(§3) The values on the abscissa represent the decimal logarithm of the inhibitor's concentration (in μM), whereas the values of the activity on the ordinate are expressed as a percentage of the control experiments without inhibitor.
(§4) The IC50 values for the replicate experiments were employed to generate the reported standard deviation value.

Another test concerns the target T2, HO-2 (rat brain) (Rattus norvegicus, UniProt P23711).
T2 construct: brain microsomes were used as a source of HO-2; from tissue; host or cells: brain microsomal fraction of adult male Sprague-Dawley rats
T2 sequence (P23711 1-315): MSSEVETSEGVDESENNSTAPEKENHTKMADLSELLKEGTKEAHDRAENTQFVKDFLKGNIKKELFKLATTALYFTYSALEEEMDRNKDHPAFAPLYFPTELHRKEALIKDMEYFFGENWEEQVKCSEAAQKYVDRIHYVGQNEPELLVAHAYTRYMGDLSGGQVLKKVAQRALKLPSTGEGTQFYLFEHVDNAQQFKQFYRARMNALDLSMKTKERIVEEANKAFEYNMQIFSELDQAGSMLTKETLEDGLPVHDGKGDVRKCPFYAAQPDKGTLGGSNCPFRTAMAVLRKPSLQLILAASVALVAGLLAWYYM
Put plainly: HO enzymatic activity in rat brain microsomal fraction (CO formed from methemalbumin, gas chromatography). In kind it is biochemical. The method, then:
as §1, §2, §3, §4

Where [1] appears, read: rat spleen microsomes, average ± standard deviation of replicate experiments, read-out: IC50 HO-1 (rat spleen)/μM.
Where [2] appears, read: rat brain microsomes, average ± standard deviation of replicate experiments, read-out: IC50 HO-2 (rat brain)/μM.
Where [3] appears, read: rat spleen microsomes, average ± standard deviation of replicate experiments.
[4] abbreviates: rat brain microsomes, average ± standard deviation of replicate experiments.

Regarding `Brc1ccc(CNCc2cccnc2)cc1`, the IC50 on HO-1 (rat spleen) (setting [1]) and at HO-2 (rat brain) (setting [2]) was over 100 µM each time.

With `c1ccc(CNCCCn2ccnc2)cc1`, the IC50 at HO-1 (rat spleen) (setting [1]) and at HO-2 (rat brain) (setting [2]) was over 100 µM in each case.

Turning to `c1ccc2[nH]c(NC3CCNCC3)nc2c1`, the IC50 on HO-1 (rat spleen) (setting [1]) and at HO-2 (rat brain) (setting [2]) was over 100 µM throughout.

Regarding `CCOC(=O)N1CCC(Nc2nc3ccccc3[nH]2)CC1`, the IC50 at HO-1 (rat spleen) (setting [1]) and at HO-2 (rat brain) (setting [2]) was over 100 µM throughout.

As to `CCOC(=O)N1CCC(Nc2nc3ccccc3n2Cc2ccc(F)cc2)CC1`, the IC50 on HO-1 (rat spleen) (setting [1]) and on HO-2 (rat brain) (setting [2]) was over 100 µM each time.

Regarding `c1cn(C2C3CC4CC(C3)CC2C4)cn1` (centres unmarked), the IC50 on HO-1 (rat spleen) (setting [1]) and at HO-2 (rat brain) (setting [2]) was over 100 µM in each case.

As for `O=C(Cn1ccnc1)c1cccs1`, the IC50 on HO-1 (rat spleen) (setting [1]) and on HO-2 (rat brain) (setting [2]) was over 100 µM each time.

Regarding `COc1ccc(CCN2CCC(Nc3nc4ccccc4[nH]3)CC2)cc1`, the IC50 on HO-1 (rat spleen) and on HO-2 (rat brain) was over 100 µM in each case.

Take `COc1ccc(CCN2CCC(Nc3nc4ccccc4n3Cc3ccccc3)CC2)cc1`: the IC50 at HO-1 (rat spleen) (setting [1]) is over 100 µM; at HO-2 (rat brain) (setting [2]), 60 ± 18 µM.

As to `COc1ccc(CCN2CCC(Nc3nc4cc(C)c(C)cc4n3Cc3ccc(F)cc3)CC2)cc1`, the IC50 is over 100 µM at HO-1 (rat spleen) (setting [1]) and 91 ± 45 µM on HO-2 (rat brain) (setting [2]).

As for `NCC(=O)c1ccc(Br)cc1`, the IC50 on HO-1 (rat spleen) and against HO-2 (rat brain) was over 100 µM throughout.

With `COc1ccc(CCN2CCC(Nc3nc4cc(Cl)c(Cl)cc4n3Cc3ccc(F)cc3)CC2)cc1`, the IC50 at HO-1 (rat spleen) (setting [1]) and on HO-2 (rat brain) (setting [2]) was over 100 µM in each case.

As to `O=C(/C(=N/O)n1ccnc1)c1ccc(Cl)cc1`, the IC50 on HO-1 (rat spleen) (setting [1]) came to 103 ± 2 µM; on HO-2 (rat brain) (setting [2]) it was 103 ± 41 µM.

On to `Cc1nccn1CC(=O)CCc1ccc(Cl)cc1.Cl`, for which, at HO-1 (rat spleen) (setting [3]), the “IC50 HO-1 (rat spleen)/μM” value is on record as “INACTIVE”. Further, the “IC50 HO-2 (rat brain)/μM” value at HO-2 (rat brain) (setting [4]) is “INACTIVE”.

Regarding `Cc1nccn1CC1(CCc2ccc(Cl)cc2)OCCO1.Cl`, at HO-1 (rat spleen) (setting [3]), the “IC50 HO-1 (rat spleen)/μM” value was “INACTIVE”. The “IC50 HO-2 (rat brain)/μM” value against HO-2 (rat brain) (setting [4]) is on record as “INACTIVE”.

`OC(CCc1ccc(Br)cc1)Cn1ccnc1` (racemic) [(±)-4-(4-bromophenyl)-1-(1H-imidazol-1-yl)butan-2-ol hydrochloride]: at HO-1 (rat spleen) (setting [1]), the IC50 worked out at 0.14 ± 0.06 µM.

Take `Clc1ccc(CC[C@@]2(Cn3ccnc3)OCC(COc3ccc(-c4ccccc4)cc3)O2)cc1` (stereo in doubt) [(2R,4S)-1-{4-(biphenyl-4-yloxymethyl)-2-[2-(4-chloro-phenyl)-ethyl]-[1,3]dioxolan-2-ylmethyl}-1H-imidazole hydrochloride]: the IC50 on HO-1 (rat spleen) (setting [1]) was determined as 2 ± 1 µM.

For `O=C(Cn1ccnc1)c1ccc(Cl)c(Cl)c1` [1-(3,4-Dichloro-phenyl)-2-imidazol-1-yl-ethanone], on HO-1 (rat spleen) (setting [1]), the IC50 was 1.24 ± 0.07 µM.

As to `O=C(Cn1ccnc1)C12CC3CC(CC(C3)C1)C2` [1-(adamantan-1-yl)-2-imidazol-1-yl-ethanone hydrochloride], the IC50 on HO-1 (rat spleen) (setting [1]) was 7 ± 1 µM.

Regarding `Brc1ccc(C2(Cn3cncn3)OCCO2)cc1` [1-[2-(4-bromo-phenyl)-[1,3]dioxolan-2-ylmethyl]-1H-[1,2,4]triazole], the IC50 at HO-2 (rat brain) (setting [2]) is over 100 µM.

`COc1ccc(C(=O)Cn2ccnc2)cc1` [2-Imidazol-1-yl-1-(4-methoxy-phenyl)-ethanone hydrochloride]: the IC50 on HO-1 (rat spleen) (setting [1]) stood at 39 ± 13 µM.

As to `CC(C)(C(=O)c1ccccc1)n1ccnc1` [2-Imidazol-1-yl-2-methyl-1-phenyl-propan-1-one], the IC50 at HO-2 (rat brain) (setting [2]) was over 100 µM.

As for `Fc1ccc(CCC2(Cn3ccnc3)OCCO2)cc1` [2-[2-(4-fluorophenyl)ethyl]-2-[(1H-imidazol-1-yl)methyl]-1,3-dioxolane hydrochloride], the IC50 at HO-2 (rat brain) (setting [2]) is over 100 µM.

As for `Ic1ccc(CCC2(Cn3ccnc3)OCCO2)cc1` [2-[2-(4-iodophenyl)ethyl]-2-[(1H-imidazol-1-yl)methyl]-1,3-dioxolane hydrochloride], the IC50 at HO-2 (rat brain) (setting [2]) was over 100 µM.

As for `O=C(Cn1ccnc1)c1cccc2ccccc12` [2-imidazol-1-yl-1-naphthalen-1-yl-ethanone hydrochloride], the IC50 on HO-1 (rat spleen) (setting [1]) is 2.2 ± 0.1 µM.

As for `COC(=O)c1cncn1CC(=O)CCc1ccccc1` [3-(2-Oxo-4-phenyl-butyl)-3H-imidazole-4-carboxylic acid methyl ester], at HO-1 (rat spleen) (setting [1]), the IC50 was found to be 69 ± 19 µM.

`O=C(CCc1ccc(Br)cc1)Cn1ccnc1` [4-(4-bromophenyl)-1-(1H-imidazol-1-yl)butan-2-one hydrochloride]: the IC50 on HO-1 (rat spleen) (setting [1]) turned out to be 1.7 ± 0.7 µM.

`O=C(CCc1ccc(Br)cc1)Cn1cncn1` [4-(4-bromophenyl)-1-[1,2,4]triazol-1-yl-butan-2-one hydrochloride]: the IC50 at HO-1 (rat spleen) (setting [1]) came out at 0.39 ± 0.02 µM.

As to `CC(=O)CCc1ccc(Br)cc1` [4-(4-bromophenyl)butan-2-one], the IC50 on HO-1 (rat spleen) (setting [1]) was over 100 µM.

Regarding `O=C(CCc1ccc(Cl)cc1)Cn1ccnc1` [4-(4-chlorophenyl)-1-(1H-imidazol-1-yl)butan-2-one hydrochloride], on HO-1 (rat spleen) (setting [1]), the IC50 was found to be 4.7 ± 0.5 µM.

In the case of `OC(CCc1ccc(F)cc1)Cn1ccnc1` (centres unmarked) [4-(4-fluorophenyl)-1-(1H-imidazol-1-yl)butan-2-ol hydrochloride], the IC50 at HO-1 (rat spleen) (setting [1]) stood at 1.4 ± 1.1 µM.

Turning to `O=C(CCc1ccc(F)cc1)Cn1ccnc1` [4-(4-fluorophenyl)-1-(1H-imidazol-1-yl)butan-2-one hydrochloride], the IC50 on HO-1 (rat spleen) (setting [1]) is 2.7 ± 0.9 µM.

Turning to `O=C(CCc1ccccc1)Cn1cnnn1` [4-Phenyl-1-tetrazol-1-yl-butan-2-one hydrochloride], on HO-2 (rat brain) (setting [2]), the IC50 came out at 30 ± 4 µM.

Consider `O=C(CCc1ccccc1)Cn1ccnn1` [4-phenyl-1-(1H-[1,2,3]triazol-1-yl)butan-2-one], for which, on HO-2 (rat brain) (setting [2]), the IC50 is over 100 µM.

With `O=C(CCc1ccccc1)Cn1nccn1` [4-phenyl-1-[1,2,3]triazol-2-yl-butan-2-one], the IC50 on HO-2 (rat brain) (setting [2]) is over 100 µM.

Consider `O=C(CCc1ccccc1)Cn1cccn1` [4-phenyl-1-pyrazol-1-yl-butan-2-one hydrochloride], for which, at HO-2 (rat brain) (setting [2]), the IC50 was over 100 µM.

Consider `O=C(/C=C/c1ccccc1)CCn1ccnc1` [5-(1H-Imidazol-1-yl)-1-phenyl-pent-1-en-3-one hydrochloride], for which the IC50 at HO-1 (rat spleen) (setting [1]) is 22.6 ± 0.8 µM.

Consider `Nc1ccccc1SC[C@H]1CO[C@@](CCc2ccc(Cl)cc2)(Cn2ccnc2)O1` [(2R,4R)-2-[2-(4-chlorophenyl)ethyl]-2-[(1H-imidazol-1-yl)methyl]-4-[{(2-aminophenyl)thio}meth-yl]-1,3-dioxolane dihydrochloride], for which the IC50 at HO-2 (rat brain) (setting [2]) is over 100 µM.

The compound `Nc1cccc(SC[C@H]2CO[C@@](CCc3ccc(Cl)cc3)(Cn3ccnc3)O2)c1` [(2R,4R)-2-[2-(4-chlorophenyl)ethyl]-2-[(1H-imidazol-1-yl)methyl]-4-[{(3-aminophenyl)thio}meth-yl]-1,3-dioxolane dihydrochloride] displayed an IC50 against HO-2 (rat brain) of over 100 µM.

As to `Nc1ccc(SC[C@H]2CO[C@@](CCc3ccc(Cl)cc3)(Cn3ccnc3)O2)cc1` [(2R,4R)-2-[2-(4-chlorophenyl)ethyl]-2-[(1H-imidazol-1-yl)methyl]-4-[{(4-aminophenyl)thio}meth-yl]-1,3-dioxolane dihydrochloride], on HO-2 (rat brain), the IC50 was over 100 µM.

As for `Nc1ccccc1SC[C@@H]1CO[C@](CCc2ccc(Cl)cc2)(Cn2ccnc2)O1` [(2S,4S)-2-[2-(4-chlorophenyl)ethyl]-2-[(1H-imidazol-1-yl)methyl]-4-[{(2-aminophenyl)thio}meth-yl]-1,3-dioxolane dihydrochloride], the IC50 at HO-1 (rat spleen) (setting [1]) was 5 ± 0.3 µM.

`Nc1ccc(SC[C@@H]2CO[C@](CCc3ccc(Cl)cc3)(Cn3ccnc3)O2)cc1` [(2S,4S)-2-[2-(4-chlorophenyl)ethyl]-2-[(1H-imidazol-1-yl)methyl]-4-[{(4-aminophenyl)thio}meth-yl]-1,3-dioxolane dihydrochloride] had an IC50 against HO-1 (rat spleen) of 5 ± 2 µM.

As for `COc1ccc(CCN2CCC(Nc3nc4ccccc4n3Cc3ccc(F)cc3)CC2)cc1` [Astemizole, reference compound], the IC50 at HO-2 (rat brain) (setting [2]) amounted to 30 ± 5 µM.

For the compound `OC(Cn1cncn1)(Cn1cncn1)c1ccc(F)cc1F` [Fluconazole, reference compound], the IC50 on HO-1 (rat spleen) (setting [1]) was determined as 80 ± 6 µM.
